Test system: synaptosomes
Test: NAD+ uptake by isolated synaptosomes (synaptosomal NAD(H) levels)
Set-up: species or system mouse

Compound	uptake of NAD+ by synaptosomes (purinergic receptor P2X(7)-gated channels inhibitor)	increase of synaptosomal NAD(H) levels compared to control samples (synaptosomes incubated with 10 mM NAD+) [fold]
brilliant blue	blocked	–
NC(=O)c1ccc[n+]([C@@H]2O[C@H](COP(=O)([O-])OP(=O)(O)OC[C@H]3O[C@@H](n4cnc5c(N)ncnc54)[C@H](O)[C@@H]3O)[C@@H](O)[C@H]2O)c1 [NAD^+, nicotinamide adenine dinucleotide]	–	2

From US20120328526A1, “Modulation of Nad+ Activity in Neuropathophysiological Conditions and Uses Thereof” (University of Maryland, Baltimore, priority 2011, published 2012)
